Experimental data reported in patent US7598382B2, “Aryl substituted imidazoquinolines” (Coley Pharmaceutical Group, Inc., priority 2002, dated 2009).

melting point [°C]	SMILES
233 to 235	CCc1nc2c(N)nc3ccc(-c4ccccc4)cc3c2n1CC(C)C [Example 16, 2-Ethyl-1-isobutyl-8-phenyl-1H-imidazo[4,5-c]quinolin-4-amine]
> 250	CCc1nc2c(N)nc3ccc(-c4cccnc4)cc3c2n1CC(C)C [Example 17, 2-Ethyl-1-isobutyl-8-(pyridin-3-yl)-1H-imidazo[4,5-c]quinolin-4-amine]
186 to 187	CCCCn1c(COCC)nc2c(N)nc3ccc(-c4ccccc4)cc3c21 [Example 18, 1-Butyl-2-ethoxymethyl-8-phenyl-1H-imidazo[4,5-c]quinolin-4-amine]
220 to 222	CCCCn1c(COCC)nc2c(N)nc3ccc(-c4cccnc4)cc3c21 [Example 19, 1-Butyl-2-ethoxymethyl-8-(pyridin-3-yl)-1H-imidazo[4,5-c]quinolin-4-amine]
140 to 141	CCCOc1cccc(-c2ccc3c(c2)nc(N)c2nc(COCC)n(CC(C)C)c23)c1 [Example 106, 2-Ethoxymethyl-1-(2-methylpropyl)-7-(3-propoxyphenyl)-1H-imidazo[4,5-c]quinolin-4-amine]
209 to 210	CCCOc1ccc(-c2ccc3c(c2)nc(N)c2nc(COCC)n(CC(C)C)c23)cc1 [Example 107, 2-Ethoxymethyl-1-(2-methylpropyl)-7-(4-propoxyphenyl)-1H-imidazo[4,5-c]quinolin-4-amine]
176.5 to 178	CCOCc1nc2c(N)nc3cc(-c4ccccc4)ccc3c2n1CC(C)C [Example 108, 2-Ethoxymethyl-1-(2-methylpropyl)-7-phenyl-1H-imidazo[4,5-c]quinolin-4-amine]
168 to 169	CCCOc1ccccc1-c1ccc2c(c1)nc(N)c1nc(COCC)n(CC(C)C)c12 [Example 109, 2-Ethoxymethyl-1-(2-methylpropyl)-7-(2-propoxyphenyl)-1H-imidazo[4,5-c]quinolin-4-amine]
211 to 212	CCOCc1nc2c(N)nc3cc(-c4ccc(C#N)cc4)ccc3c2n1CC(C)C [Example 110, 4-(4-Amino-2-ethoxymethyl-1-(2-methylpropyl)-1H-imidazo[4,5-c]quinolin-7-yl)benzonitrile]
210 to 211	CCOCc1nc2c(N)nc3cc(-c4cccc(C#N)c4)ccc3c2n1CC(C)C [Example 111, 3-(4-Amino-2-ethoxymethyl-1-(2-methylpropyl)-1H-imidazo[4,5-c]quinolin-7-yl)benzonitrile]
179.5 to 181.5	CCOCc1nc2c(N)nc3cc(-c4cccnc4)ccc3c2n1CC(C)C [Example 113, 2-Ethoxymethyl-1-(2-methylpropyl)-7-(pyridin-3-yl)-1H-imidazo[4,5-c]quinolin-4-amine]
214.5 to 215.5	CCOCc1nc2c(N)nc3cc(-c4ccc(N(C)C)cc4)ccc3c2n1CC(C)C [Example 114, 7-(4-Dimethylaminophenyl)-2-ethoxymethyl-1-(2-methylpropyl)-1H-imidazo[4,5-c]quinolin-4-amine]
211 to 212	CCOCc1nc2c(N)nc3cc(-c4cncc(CO)c4)ccc3c2n1CC(C)C [Example 115, {5-[4-Amino-2-ethoxymethyl-1-(2-methylpropyl)-1H-imidazo[4,5-c]quinolin-7-yl]pyridin-3-yl}methanol]
211 to 213	CCOCc1nc2c(N)nc3cc(-c4ccncc4)ccc3c2n1CC(C)C [Example 116, 2-Ethoxymethyl-1-(2-methylpropyl)-(7-pyridin-4-yl)-1H-imidazo[4,5-c]quinolin-4-amine]
175.5 to 178	CCOCc1nc2c(N)nc3cc(CCc4ccc(C(F)(F)F)cc4)ccc3c2n1CC(C)C [Example 117, 2-Ethoxymethyl-1-(2-methylpropyl)-7-{2-[(trifluoromethyl)phenyl]ethyl}-1H-imidazo[4,5-c]quinolin-4-amine]
238 to 240	CCc1ccc(-c2ccc3nc(N)c4ncn(CC(C)C)c4c3c2)cc1 [Example 118, 8-(4-Ethylphenyl)-1-(2-methylpropyl)-1H-imidazo[4,5-c]quinolin-4-amine]
204 to 205	Cc1ccc(-c2ccc3nc(N)c4ncn(CC(C)C)c4c3c2)cc1C [Example 119, 8-(3,4-Dimethylphenyl)-1-(2-methylpropyl)-1H-imidazo[4,5-c]quinolin-4-amine]
217 to 218	CC(=O)c1cccc(-c2ccc3nc(N)c4ncn(CC(C)C)c4c3c2)c1 [Example 120, 1-{3-[4-Amino-1-(2-methylpropyl)-1H-imidazo[4,5-c]quinolin-8-yl]phenyl}ethanone]
247 to 248	CC(C)Cn1cnc2c(N)nc3ccc(-c4csc5ccccc45)cc3c21 [Example 121, 8-Benzo[b]thiophen-3-yl-1-(2-methylpropyl)-1H-imidazo[4,5-c]quinolin-4-amine]

melting point [°C]	SMILES
228 to 230	CC(C)Cn1cnc2c(N)nc3ccc(C=Cc4ccccc4)cc3c21 [Example 122, 1-(2-Methylpropyl)-8-styryl-1H-imidazo[4,5-c]quinolin-4-amine]
175 to 178	CC(C)Cn1cnc2c(N)nc3ccc(CCc4ccccc4)cc3c21 [Example 123, 1-(2-Methylpropyl)-8-phenethyl-1H-imidazo[4,5-c]quinolin-4-amine]
203 to 205	Cc1nc2c(N)nc3cc(-c4ccccc4)ccc3c2n1CCCS(C)(=O)=O [Example 124, 2-Methyl-1-(3-methanesulfonylpropyl)-7-phenyl-1H-imidazo[4,5-c]quinolin-4-amine]
204 to 205	CCOCc1nc2c(N)nc3cc(-c4ccsc4)ccc3c2n1CC(C)(C)O [Example 125, 1-[4-Amino-2-ethoxymethyl-7-(thiophen-3-yl)-1H-imidazo[4,5-c]quinolin-1-yl]-2-methylpropan-2-ol]
197 to 199	CCOCc1nc2c(N)nc3cc(-c4cccnc4)ccc3c2n1CC(C)(C)O [Example 126, 1-[4-Amino-2-ethoxymethyl-7-(pyridin-3-yl)-1H-imidazo[4,5-c]quinolin-1-yl]-2-methylpropan-2-ol]
220 to 221	CCOCc1nc2c(N)nc3cc(-c4ccncc4)ccc3c2n1CC(C)(C)O [Example 127, 1-[4-Amino-2-ethoxymethyl-7-(pyridin-4-yl)-1H-imidazo[4,5-c]quinolin-1-yl]-2-methylpropan-2-ol]
> 250	CCOCc1nc2c(N)nc3cc(-c4cn[nH]c4)ccc3c2n1CC(C)(C)O [Example 128, 1-[4-Amino-2-ethoxymethyl-7-(1H-pyrazol-4-yl)-1H-imidazo[4,5-c]quinolin-1-yl]-2-methylpropan-2-ol]
216.5 to 217.5	CCOCc1nc2c(N)nc3cc(-c4cccc(C(=O)N5CCCC5)c4)ccc3c2n1CC(C)(C)O [Example 129, {3-[4-Amino-2-ethoxymethyl-1-(2-hydroxy-2-methylpropyl)-1H-imidazo[4,5-c]quinolin-7-yl]phenyl}pyrrolidin-1-ylmethanone]
152 to 154	CCOCc1nc2c(N)nc3cc(-c4cccc(C(=O)N5CCOCC5)c4)ccc3c2n1CC(C)(C)O [Example 130, {3-[4-Amino-2-ethoxymethyl-1-(2-hydroxy-2-methylpropyl)-1H-imidazo[4,5-c]quinolin-7-yl]phenyl}morpholin-4-ylmethanone]
211 to 212	CCOCc1nc2c(N)nc3cc(-c4ccccc4)ccc3c2n1CC(C)(C)O [Example 131, 1-(4-Amino-2-ethoxymethyl-7-phenyl-1H-imidazo[4,5-c]quinolin-1-yl)-2-methylpropan-2-ol]
188 to 190	CCOCc1nc2c(N)nc3cc(-c4cncc(CO)c4)ccc3c2n1CC(C)(C)O [Example 133, 1-[4-Amino-2-ethoxymethyl-7-(5-hydroxymethylpyridin-3-yl)-1H-imidazo[4,5-c]quinolin-1-yl]-2-methylpropan-2-ol]
156 to 156.5	CCOCc1cncc(-c2ccc3c(c2)nc(N)c2nc(COCC)n(CC(C)(C)O)c23)c1 [Example 134, 1-[4-Amino-2-ethoxymethyl-7-(5-ethoxymethylpyridin-3-yl)-1H-imidazo[4,5-c]quinolin-1-yl]-2-methylpropan-2-ol]
> 250	CCOCc1nc2c(N)nc3cc(-c4cccc(C(=O)O)c4)ccc3c2n1CC(C)(C)O [Example 135, 3-[4-Amino-2-ethoxymethyl-1-(2-hydroxy-2-methylpropyl)-1H-imidazo[4,5-c]quinolin-7-yl]benzoic acid]
226 to 227	COCCc1nc2c(N)nc3cc(-c4ccccc4)ccc3c2n1CC(C)(C)O [Example 136, 1-[4-Amino-2-(2-methoxyethyl)-7-phenyl-1H-imidazo[4,5-c]quinolin-1-yl]-2-methylpropan-2-ol]
233 to 234	COCCc1nc2c(N)nc3cc(-c4ccsc4)ccc3c2n1CC(C)(C)O [Example 137, 1-[4-Amino-2-(2-methoxyethyl)-7-(thiophen-3-yl)-1H-imidazo[4,5-c]quinolin-1-yl]-2-methylpropan-2-ol]
158 to 160	COCCc1nc2c(N)nc3cc(-c4cccnc4)ccc3c2n1CC(C)(C)O [Example 138, 1-[4-Amino-2-(2-methoxyethyl)-7-(pyridin-3-yl)-1H-imidazo[4,5-c]quinolin-1-yl]-2-methylpropan-2-ol]
212 to 213	COCCc1nc2c(N)nc3cc(-c4cccc(CO)c4)ccc3c2n1CC(C)(C)O [Example 140, 1-[4-Amino-7-(3-hydroxymethylphenyl)-2-(2-methoxyethyl)-1H-imidazo[4,5-c]quinolin-1-yl]-2-methylpropan-2-ol]
210 to 211	COCCc1nc2c(N)nc3cc(-c4cncc(CO)c4)ccc3c2n1CC(C)(C)O [Example 141, 1-[4-Amino-7-(5-hydroxymethylpyridin-3-yl)-2-(2-methoxyethyl)-1H-imidazo[4,5-c]quinolin-1-yl]-2-methylpropan-2-ol]
245 to 247	CCc1nc2c(N)nc3cc(-c4cccnc4)ccc3c2n1CC(C)(C)O [Example 142, 1-[4-Amino-2-ethyl-7-(pyridin-3-yl)-1H-imidazo[4,5-c]quinolin-1-yl]-2-methylpropan-2-ol]
